Assay results: the SangsterLogP compilation

Experiments:
[1] = pH 7.4
[2] = not given; remark: listed apart in the source
[3] = method code SF-AS, from DOI: 10.1016/j.arabjc.2011.11.013
[4] = not given; remark: listed apart in the source
[5] = method code SF-AS, from DOI: 10.1016/s0022-5347(24)07568-2, PMID: 4149453; conditions: pH 7.5
[6] = not given; remark: listed apart in the source
[7] = not given; remark: listed apart in the source
[8] = method code SF, from DOI: 10.1002/ps.2780350215
[9] = method code SF, from DOI: 10.1016/0378-5173(85)90077-8
[10] = method code SF-HPLC, from DOI: 10.1023/a:1016359301852, PMID: 24271710
[11] = method code SF-RC, from DOI: 10.1016/j.bmc.2006.11.022, PMID: 17293116; conditions: pH 7.4
[12] = not given; remark: listed apart in the source
[13] = not given; remark: listed apart in the source
[14] = not given; remark: listed apart in the source
[15] = method code SF-HPLC, from DOI: 10.1023/a:1015956705293, PMID: 3244625
[16] = method code SF-AS, from DOI: 10.1016/0378-5173(85)90003-1
[17] = method code SF-AS, from DOI: 10.1016/0006-2952(90)90117-4, PMID: 2344368; conditions: pH 7.5
[18] = method code SF-HPLC, from DOI: 10.1016/j.ejps.2012.04.024, PMID: 22609526
[19] = method code SF-HPLC, from DOI: 10.1016/j.ejmech.2003.12.002, PMID: 15051170
[20] = method code SF, from PMID: 26783178
[21] = not given; remark: listed apart in the source

`C[C@]12C=CC(=O)C=C1CC[C@@H]1[C@@H]2[C@@H](O)C[C@@]2(C)[C@H]1CC[C@]2(O)[C@@H](O)C(=O)NCc1ccccc1` gave a logD [1] of 1.51.
Compound `CC1N=C2C3=C(CCC(c4ccccc4)C3)C(C(=O)NCCO)=CN2C1C` (stereo not drawn) has a logP of 2.81.
With `CCCCOc1cc(C(=O)NCCN(CC)CC)c2ccccc2n1` the logP [2] was 4.19.
Work on `O=C(CNc1ccc(O)cc1)Nc1ccc(Cl)cc1C(=O)c1ccccc1` yielded a logP [3] of 3.5.
With `COc1ccc(C(=O)CCCN2CCC(O)(c3ccc(Cl)cc3)CC2)cc1` the logP [4] was 2.9.
`CCCCCOC(=O)CC[C@H](NC(=O)c1ccc(N(C)Cc2cnc3nc(N)nc(N)c3n2)cc1)C(=O)OCCCCC` gave a logD [5] of 1.33.
For `Cc1cccc2c1OP(=O)(OCC1OC(n3cc(/C=C/Br)c(=O)[nH]c3=O)CC1OC(=O)C1CCCN1)OC2` (stereo not drawn), the logP [6] was -0.4.
Work on `O=C(Nc1ccc2ncnc(Nc3ccc(F)c(Cl)c3)c2c1)c1ccc(I)cc1` yielded a logP [7] of 4.83.
`O=C(Nc1ccc2ncnc(Nc3ccc(F)c(Cl)c3)c2c1)c1ccc(F)cc1` showed a logP [7] of 4.55.
Work on `Cc1cc(=O)c(C(=O)Nc2ccccc2Cl)c(C)n1CCc1ccccc1` yielded a logP [8] of 2.79.
In the case of `O=C(CNc1ccccc1)Nc1ccc(Cl)cc1C(=O)c1ccccc1`, the logP [3] is reported as 4.24.
With `CCCCCC(=O)OCC(=O)[C@@]1(O)CC[C@H]2[C@@H]3CCC4=CC(=O)CC[C@]4(C)[C@H]3C(=O)C[C@@]21C` the logP [9] was 3.3.
Work on `Cc1cccc2c1OP(=O)(OCC1OC(n3cc(/C=C/Br)c(=O)[nH]c3=O)CC1OC(=O)C(N)C(C)C)OC2` (stereo not drawn) yielded a logP [6] of -0.1.
For `CNC(=O)C(O)C1(O)CCC2C3CCC4=CC(=O)C=CC4(C)C3C(O)CC21C` (stereo not drawn), the logD [1] was 1.
With `COc1ccc(CN2CCN(c3ccccc3)CC2)c(OC)c1OC` the logP [2] was 3.
`C#CC1(O)CC[C@H]2[C@@H]3CCC4=CC(=O)CC[C@]4(C)[C@H]3CC[C@@]21C` (stereo in doubt) gave a logP [10] of 3.11.
Compound `Cc1cc(=O)c(C(=O)Nc2ccccc2)c(C)n1CCc1ccccc1` has a logP [8] of 2.04.
`CNc1ccc(-c2nc3ccc(-c4nc5ccc(Cl)cc5s4)cc3s2)cc1` gave a logD [11] of 3.05.
`CC1N=C2C3=C(CCC(c4ccccc4)C3)C(C(N)=O)=CN2C1C` (stereo not drawn) gave a logP of 3.21.
Work on `CCc1cccc(CC)c1NC(=O)c1c(C)n(Cc2ccccc2)c(C)cc1=O` yielded a logP [8] of 2.9.
For `Cc1cn2c(n1)C1CC(c3ccccc3)CCC1C(C(=O)N(C)C)=C2` (stereo not drawn), the logP was 2.77.
Compound `CC(C)N1C=CCC(C(=O)OC2CCC3C4CCc5cc(O)ccc5C4CC23C)=C1` (stereo not drawn) has a logP [12] of 4.6.
With `NC(=O)c1ccc2c(ccn2CC(=O)Oc2ccc(-c3ccccc3)cc2)c1` the logP [13] was 2.4.
`CO[C@H]1CC[C@H]2[C@@H]3CC[C@H]4CC(=O)[C@H](C)C[C@]4(C)[C@H]3CC[C@]12C` gave a logP [14] of 5.43.
With `Nc1ccc(C(=O)OCC(=O)Nc2ccc(Cl)cc2C(=O)c2ccccc2)cc1` the logP [3] was 4.78.
In the case of `C[C@]12CCC(=O)C=C1CC[C@@H]1[C@@H]2[C@@H](O)C[C@@]2(C)[C@H]1CC[C@]2(O)C(=O)COC(=O)CCCCCC(N)=O`, the logP [15] is reported as 2.3.
`C=CCCN1C=CCC(C(=O)OC2CCC3C4CCc5cc(O)ccc5C4CC23C)=C1` (stereo not drawn) gave a logP [12] of 3.96.
Work on `C#C[C@]1(O)CC[C@H]2[C@@H]3CCC4=CC(=O)CC[C@@H]4[C@H]3CC[C@@]21C` yielded a logP [10] of 2.97.
For `COC(=O)CCCCCC(=O)OCC(=O)C1(O)CCC2C3CCC4=CC(=O)CCC4(C)C3C(O)CC21C` (stereo not drawn), the logP [15] was 3.7.
With `CC(=O)OCC1=C(C(=O)OCOC(=O)C(C)(C)C)N2C(=O)C(NC(=O)Cc3cccs3)C2SC1` (stereo not drawn) the logD ([16]; pH 4.6) was 1.57.
Compound `COc1cccc2c1C(=O)c1c(O)c3c(c(O)c1C2=O)CC(O)(C(C)=O)CC3OC1CC(O)C(O)C(C)O1` (stereo not drawn) has a logD [17] of 1.34.
In the case of `O=C(O)[C@H]1O[C@@H](Oc2c(-c3ccc(O)c(O)c3)oc3cc(O)cc(O)c3c2=O)[C@H](O)[C@@H](O)[C@@H]1O`, the logP [18] is reported as 0.79.
In the case of `C[C@@H]1CC2=CC(=O)CC[C@@H]2[C@H]2CC[C@@]3(C)[C@@H](CC[C@]3(C)O)[C@@H]21`, the logP [14] is reported as 3.19.
For `Cc1cccc2c1OP(=O)(OCC1OC(n3cc(C=CBr)c(=O)[nH]c3=O)CC1OC(=O)C(C)C)OC2` (stereo not drawn), the logP [6] was 2.4.
Work on `CNc1ccc(-c2nc3ccc(-c4nc5ccccc5s4)cc3s2)cc1` yielded a logD [11] of 2.34.
With `CC(CCN1CCC(O)(c2ccc(Cl)cc2)CC1)c1ccc(F)cc1` (stereo not drawn) the logP [4] was 4.02.
`CCCCCCCCc1ccc(OC(=O)Cn2ccc3cc(C(=O)O)ccc32)cc1` showed a logP [13] of 6.3.
In the case of `O=C(Cn1ccc2cc(C(=O)O)ccc21)Oc1ccccc1-c1ccccc1`, the logP [13] is reported as 3.1.
In the case of `CN(C)c1ccc(-c2nc3ccc(-c4nc5ccc(F)cc5s4)cc3s2)cc1`, the logD [11] is reported as 2.99.
`Cn1nnnc1SCC1=C(C(=O)OCOC(=O)C(C)(C)C)N2C(=O)C(NC(=O)C(O)c3ccccc3)C2SC1` (stereo not drawn) showed a logD ([16]; pH 4.5) of 0.85.
For `Cc1ccc(C(=O)CCCN2CCC(O)(c3ccc(Cl)cc3)CC2)cc1`, the logP [4] was 3.44.
In the case of `C[C@]12CCC(=O)C=C1CC[C@@H]1[C@@H]2[C@@H](O)C[C@@]2(C)[C@H]1CC[C@]2(O)C(=O)COC(=O)CCC(N)=O`, the logP [15] is reported as 1.43.
`O=C(OC[C@H]1O[C@@H](Oc2c(-c3ccc(O)c(O)c3)oc3cc(O)cc(O)c3c2=O)[C@H](O)[C@@H](O)[C@H]1O)c1cc(O)c(O)c(O)c1` gave a logP [18] of -0.97.
Work on `C#CC1(OC(=O)c2ccn(C)c2)CCC2C3CCC4=CC(=O)CCC4(C)C3CCC21C` (stereo not drawn) yielded a logP [10] of 4.49.
Work on `COC(=O)C(C)NP(=O)(OCC1C=CC(n2cc(C)c(=O)[nH]c2=O)O1)Oc1c(OC)cccc1OC` (stereo not drawn) yielded a logP [19] of 0.4.
For `COc1cccc2c1C(=O)c1c(O)c3c(c(O)c1C2=O)C[C@@](O)(C(C)=O)C[C@@H]3O[C@@H]1C[C@@H](N(C)C)[C@@H](O)[C@@H](C)O1`, the logD [17] was 1.37.
`C[C@@H]1C[C@@]2(C)[C@@H](CC[C@@H]3[C@@H]2CC[C@]2(C)[C@@H](O)CC[C@@H]32)CC1=O` gave a logP [14] of 3.99.
Work on `Cc1ccc(N2C(=O)C(CCCNS(=O)(=O)c3ccc(OC(F)(F)F)cc3)C2c2ccc(NS(C)(=O)=O)cc2)cc1` (stereo not drawn) yielded a logP [20] of 3.45.
With `CC1CN(C2C=CC(COP(=O)(NC(C)C(=O)O)Oc3ccc(Br)cc3Cl)O2)C(=O)NC1=O` (stereo not drawn) the logP [19] was 1.81.
In the case of `COC(=O)CCC(NC(=O)c1ccc(N(C)Cc2cnc3nc(N)nc(N)c3n2)cc1)C(=O)OC` (stereo not drawn), the logD [5] is reported as 0.54.
`Cn1nnnc1SCC1=C(C(=O)OCOC(=O)C(C)(C)C)N2C(=O)C(NC(=O)Cc3csc(N)n3)C2SC1` (stereo not drawn) gave a logD ([16]; pH 4.6) of 1.36.
In the case of `Fc1ccc(C(c2ccc(F)cc2)N2CCN(C/C=C/c3ccccc3)CC2)cc1`, the logP [2] is reported as 4.83.
`COc1cccc2c1C(=O)c1c(O)c3c(c(O)c1C2=O)CC(O)(C(C)=O)CC3OC1CC(NC(C)=O)C(O)C(C)O1` (stereo not drawn) gave a logD [17] of 1.85.
Work on `C(=C\c1ccc(/C=C/c2ccncc2)cc1)/c1ccncc1` yielded a logP [21] of 3.93.
For `Cc1ccc(N2C(=O)[C@H](CCCNS(=O)(=O)c3ccc(OC(F)(F)F)cc3)[C@H]2c2ccc(NS(=O)(=O)c3ccc(C)cc3)cc2)cc1`, the logP [20] was 3.78.
`COC(=O)C(C)NP(=O)(OCC1C=CC(n2cc(C)c(=O)[nH]c2=O)O1)Oc1ccccc1Br` (stereo not drawn) showed a logP [19] of 0.95.
`CN1C=CCC(C(=O)O[C@H]2CC[C@H]3[C@@H]4CCc5cc(O)ccc5[C@H]4CC[C@]23C)=C1` gave a logP [12] of 4.52.
For `COc1cc(OC)c2c(=O)c(OC)c(-c3ccc(OC)c(OC)c3)oc2c1`, the logP [18] was 3.85.
In the case of `CCCNC(=O)[C@H](O)[C@@]1(O)CC[C@H]2[C@@H]3CCC4=CC(=O)C=C[C@]4(C)[C@H]3[C@@H](O)C[C@@]21C`, the logD [1] is reported as 1.43.
`CCc1ccc(S(=O)(=O)NCCC[C@H]2C(=O)N(c3ccc(C)cc3)[C@@H]2c2ccc(NS(=O)(=O)c3ccc(C)cc3)cc2)cc1` showed a logP [20] of 3.9.
In the case of `O=C(Nc1ccc2ncnc(Nc3ccc(F)c(Cl)c3)c2c1)c1cccc(I)c1`, the logP [7] is reported as 5.58.
`CCCCCCCCOC(=O)CCC(NC(=O)c1ccc(N(C)Cc2cnc3nc(N)nc(N)c3n2)cc1)C(=O)OCCCCCCCC` (stereo not drawn) gave a logD [5] of 2.16.
`C(=Cc1cccnc1)c1ccc(C=Cc2cccnc2)cc1` showed a logP [21] of 3.73.
